Data reported in ChEMBL document CHEMBL6153089, “Design, Synthesis, and Biological Evaluation of Thieno[3,2-d]pyrimidine Derivatives as the First Bifunctional PI3Kδ Isoform Selective/Bromodomain and Extra-Terminal Inhibitors” (J Med Chem, 2025).
Each block holds one molecule with its values, some of them ahead of it.

Tests used:
[1] = molecular target: PI3-kinase p110-delta/p85-alpha (Homo sapiens) (UniProt P27986+O00329); assay: Inhibition of p110delta/p85alpha (unknown origin) at 100 nM incubated for 2 hrs in presence of ATP by ADP-kinaseGlo reagent based assay relative to control; format: protein-complex assay
[2] = molecular target: T1, Bromodomain-containing protein 4 (Homo sapiens, UniProt O60885); assay: Inhibition of His-tagged BRD4-BD1 (unknown origin) at 10 nM incubated for 30 mins by Alphascreen assay relative to control
SU-DHL-6 [3] = assay: Antiproliferative against activity human SU-DHL-6 cells assessed as inhibition of cell growth incubated for 72 hrs by Celltiter-luminescence analysis; format: functional, cell-based; conditions: SU-DHL-6, 72 h
SUD4 [4] = assay: Antiproliferative against activity human SU-DHL-4 cells assessed as inhibition of cell growth incubated for 72 hrs by Celltiter-luminescence analysis; format: functional, cell-based; conditions: SU-DHL-4, 72 h
[5] = molecular target: T1, Bromodomain-containing protein 4; assay: Inhibition of His-tagged BRD4-BD1 (unknown origin) incubated for 30 mins in presence of ATP by Alphascreen assay
SU-DHL-6 [6] = assay: Antiproliferative against activity human SU-DHL-6 cells assessed as inhibition of cell growth incubated for 72 hrs in presence of 10:1 PI-3065:compound by Celltiter-luminescence analysis; format: functional, cell-based; conditions: SU-DHL-6, 72 h
SUD4 [7] = assay: Antiproliferative against activity human SU-DHL-4 cells assessed as inhibition of cell growth incubated for 72 hrs in presence of 10:1 PI-3065:compound by Celltiter-luminescence analysis; format: functional, cell-based; conditions: SU-DHL-4, 72 h
[8] = molecular target: PI3-kinase p110-delta/p85-alpha (Homo sapiens, UniProt O00329); assay: Inhibition of p110delta/p85alpha (unknown origin) incubated for 2 hrs in presence of ATP by ADP-kinaseGlo reagent based assay; format: protein-complex assay
SUD4 [9] = assay: Induction of apoptosis in human SU-DHL-4 cells assessed as viable cells at 1 uM incubated for 24 hrs by Annexin V-FITC/PI staining based flow cytometric analysis (reference value: 65.2 %); format: functional; conditions: read-out: Activity
[10] = molecular target: Bromodomain testis-specific protein (Homo sapiens, UniProt Q58F21); assay: Inhibition of His-tagged BRDT-BD1 (unknown origin) incubated for 30 mins in presence of ATP by Alphascreen assay
[11] = Toxicity in female BALB/c mouse model xenografted with human SU-DHL-6 cells assessed as effect on kidney histopathology at 20 mg/kg, po administered once daily via gavage for 15 days by H and E staining based analysis; format: organism-based; conditions: in vivo, 360 h, time 15 day
[12] = molecular target: Bromodomain-containing protein 2 (Homo sapiens, UniProt P25440); assay: Inhibition of His-tagged BRD2-BD1 (unknown origin) incubated for 30 mins in presence of ATP by Alphascreen assay
[13] = Toxicity in female BALB/c mouse model xenografted with human SU-DHL-6 cells assessed as effect on lung histopathology at 20 mg/kg, po administered once daily via gavage for 15 days by H and E staining based analysis; format: organism-based; conditions: in vivo, 360 h, time 15 day
[14] = molecular target: Serine/threonine-protein kinase mTOR (Homo sapiens, UniProt P42345); assay: Inhibition of mTOR (unknown origin) incubated for 2 hrs in presence of ATP by ADP-kinaseGlo reagent based assay
WI-38 = assay: Cytotoxicity against human WI-38 cells assessed as inhibition of cell growth at 1 uM incubated for 72 hrs by Celltiter-luminescence analysis; format: toxicity, cell-based; conditions: wi-38, 72 h
SUD4 [15] = assay: Induction of apoptosis in human SU-DHL-4 cells assessed as necrotic cells at 1 uM incubated for 24 hrs by Annexin V-FITC/PI staining based flow cytometric analysis (reference value: 0.642 %); format: functional
[16] = molecular target: Bromodomain-containing protein 3 (Homo sapiens, UniProt Q15059); assay: Inhibition of His-tagged BRD3-BD1 (unknown origin) incubated for 30 mins in presence of ATP by Alphascreen assay
SU-DHL-6 [17] = assay: Induction of apoptosis in human SU-DHL-6 cells assessed as viable cells at 1 uM incubated for 24 hrs by Annexin V-FITC/PI staining based flow cytometric analysis (reference value: 61.2 %); format: functional; conditions: read-out: Activity
[18] = Toxicity in female BALB/c mouse model xenografted with human SU-DHL-6 cells assessed as effect on spleen histopathology at 20 mg/kg, po administered once daily via gavage for 15 days by H and E staining based analysis; format: organism-based; conditions: in vivo, 360 h, time 15 day
[19] = molecular target: T1, Bromodomain-containing protein 4; assay: Inhibition of His-tagged BRD4-BD2 (unknown origin) incubated for 30 mins in presence of ATP by Alphascreen assay
[20] = molecular target: Phosphatidylinositol 4,5-bisphosphate 3-kinase catalytic subunit beta isoform (Homo sapiens, UniProt P42338); assay: Inhibition of PI3Kbeta (unknown origin) incubated for 2 hrs in presence of ATP by ADP-kinaseGlo reagent based assay
SUD4 [21] = assay: Induction of apoptosis in human SU-DHL-4 cells assessed as early apoptotic cells at 1 uM incubated for 24 hrs by Annexin V-FITC/PI staining based flow cytometric analysis (reference value: 25.3 %); format: functional
[22] = molecular target: Phosphatidylinositol 4,5-bisphosphate 3-kinase catalytic subunit gamma isoform (Homo sapiens, UniProt P48736); assay: Inhibition of PI3Kgamma (unknown origin) incubated for 2 hrs in presence of ATP by ADP-kinaseGlo reagent based assay
SU-DHL-6 [23] = assay: Induction of apoptosis in human SU-DHL-6 cells assessed as late apoptotic cells at 1 uM incubated for 24 hrs by Annexin V-FITC/PI staining based flow cytometric analysis (reference value: 6.43 %); format: functional
SUD4 [24] = assay: Induction of apoptosis in human SU-DHL-4 cells assessed as late apoptotic cells at 1 uM incubated for 24 hrs by Annexin V-FITC/PI staining based flow cytometric analysis (reference value: 6.74 %); format: functional
SU-DHL-6 [25] = assay: Antitumor activity against human SU-DHL-6 cells xenografted in female BALB/c mouse model assessed as downregulation of Ki67 level in tumor at 20 mg/kg, po administered once daily via gavage for 15 days by immunohistochemical staining based analysis; format: functional, organism-based; conditions: time 15.0 day
SU-DHL-6 [26] = assay: Antitumor activity against human SU-DHL-6 cells xenografted in female BALB/c mouse model assessed as tumor growth inhibition at 20 mg/kg, po administered once daily via gavage for 15 days relative to control; format: functional; conditions: SU-DHL-6, 360 h, time 15 day, read-out: TGI
SU-DHL-6 [27] = assay: Induction of apoptosis in human SU-DHL-6 cells assessed as early apoptotic cells at 1 uM incubated for 24 hrs by Annexin V-FITC/PI staining based flow cytometric analysis (reference value: 32.1 %); format: functional
HUVEC = assay: Cytotoxicity against HUVEC cells assessed as inhibition of cell growth at 1 uM incubated for 72 hrs by Celltiter-luminescence analysis; format: toxicity, cell-based; conditions: human
[28] = Toxicity in female BALB/c mouse model xenografted with human SU-DHL-6 cells assessed as effect on heart histopathology at 20 mg/kg, po administered once daily via gavage for 15 days by H and E staining based analysis; format: organism-based; conditions: in vivo, 360 h, time 15 day
[29] = Toxicity in female BALB/c mouse model xenografted with human SU-DHL-6 cells assessed as effect on liver histopathology at 20 mg/kg, po administered once daily via gavage for 15 days by H and E staining based analysis; format: organism-based; conditions: in vivo, 360 h, time 15 day
[30] = Toxicity in female BALB/c mouse model xenografted with human SU-DHL-6 cells assessed as effect on body weight at 20 mg/kg, po administered once daily via gavage for 15 days; format: organism-based; conditions: in vivo, 360 h, time 15 day
SU-DHL-6 [31] = assay: Induction of apoptosis in human SU-DHL-6 cells assessed as necrotic cells at 1 uM incubated for 24 hrs by Annexin V-FITC/PI staining based flow cytometric analysis (reference value: 0.246 %); format: functional

Chain of PI3-kinase p110-delta/p85-alpha (P27986 whole entry): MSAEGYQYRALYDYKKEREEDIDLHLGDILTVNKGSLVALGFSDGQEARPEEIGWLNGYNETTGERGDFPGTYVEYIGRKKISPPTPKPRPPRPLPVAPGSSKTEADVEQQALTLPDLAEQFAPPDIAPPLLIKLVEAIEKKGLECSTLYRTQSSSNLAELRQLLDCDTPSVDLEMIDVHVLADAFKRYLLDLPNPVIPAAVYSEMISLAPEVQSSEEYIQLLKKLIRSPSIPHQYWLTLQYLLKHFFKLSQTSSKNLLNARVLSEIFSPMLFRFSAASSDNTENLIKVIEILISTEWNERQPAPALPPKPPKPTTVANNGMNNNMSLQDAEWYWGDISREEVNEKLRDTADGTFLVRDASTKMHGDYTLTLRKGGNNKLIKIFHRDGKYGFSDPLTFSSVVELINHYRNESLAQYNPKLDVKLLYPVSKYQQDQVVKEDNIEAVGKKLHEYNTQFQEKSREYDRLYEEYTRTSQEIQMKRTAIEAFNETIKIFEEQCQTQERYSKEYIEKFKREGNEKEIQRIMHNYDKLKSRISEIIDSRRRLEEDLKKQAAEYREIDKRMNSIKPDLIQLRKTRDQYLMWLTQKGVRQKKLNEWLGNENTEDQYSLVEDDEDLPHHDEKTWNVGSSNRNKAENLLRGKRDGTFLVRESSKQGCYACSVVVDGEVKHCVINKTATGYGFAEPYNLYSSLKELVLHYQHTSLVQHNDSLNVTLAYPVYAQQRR
Chain of PI3-kinase p110-delta/p85-alpha (O00329 whole entry): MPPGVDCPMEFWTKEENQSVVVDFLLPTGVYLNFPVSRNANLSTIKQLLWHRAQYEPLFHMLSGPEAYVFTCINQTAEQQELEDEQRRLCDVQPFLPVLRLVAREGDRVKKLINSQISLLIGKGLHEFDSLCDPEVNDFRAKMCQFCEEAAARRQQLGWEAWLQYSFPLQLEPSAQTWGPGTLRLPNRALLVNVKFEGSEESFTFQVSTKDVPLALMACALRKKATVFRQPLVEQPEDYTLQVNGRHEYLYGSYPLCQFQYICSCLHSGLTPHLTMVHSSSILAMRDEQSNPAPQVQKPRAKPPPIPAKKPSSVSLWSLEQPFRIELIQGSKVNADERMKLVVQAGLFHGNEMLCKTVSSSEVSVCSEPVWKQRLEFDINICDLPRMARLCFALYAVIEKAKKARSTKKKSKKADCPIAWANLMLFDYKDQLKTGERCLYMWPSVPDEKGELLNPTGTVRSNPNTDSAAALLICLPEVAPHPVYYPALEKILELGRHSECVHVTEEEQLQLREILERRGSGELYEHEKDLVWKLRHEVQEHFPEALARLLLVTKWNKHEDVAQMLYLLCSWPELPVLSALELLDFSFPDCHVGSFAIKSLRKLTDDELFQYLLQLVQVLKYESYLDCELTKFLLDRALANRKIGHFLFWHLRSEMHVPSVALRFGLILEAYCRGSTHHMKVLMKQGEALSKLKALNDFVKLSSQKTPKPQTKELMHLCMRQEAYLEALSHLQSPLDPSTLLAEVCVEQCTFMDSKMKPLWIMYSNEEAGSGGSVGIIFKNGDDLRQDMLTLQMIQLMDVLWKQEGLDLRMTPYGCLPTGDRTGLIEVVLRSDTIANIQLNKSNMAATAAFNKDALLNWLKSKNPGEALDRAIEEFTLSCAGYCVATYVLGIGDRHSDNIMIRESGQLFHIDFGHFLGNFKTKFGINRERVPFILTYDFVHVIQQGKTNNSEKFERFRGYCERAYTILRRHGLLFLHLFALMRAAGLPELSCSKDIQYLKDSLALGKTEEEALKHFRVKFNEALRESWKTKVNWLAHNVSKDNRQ
Chain of Phosphatidylinositol 4,5-bisphosphate 3-kinase catalytic subunit beta isoform (P42338 whole entry, canonical isoform): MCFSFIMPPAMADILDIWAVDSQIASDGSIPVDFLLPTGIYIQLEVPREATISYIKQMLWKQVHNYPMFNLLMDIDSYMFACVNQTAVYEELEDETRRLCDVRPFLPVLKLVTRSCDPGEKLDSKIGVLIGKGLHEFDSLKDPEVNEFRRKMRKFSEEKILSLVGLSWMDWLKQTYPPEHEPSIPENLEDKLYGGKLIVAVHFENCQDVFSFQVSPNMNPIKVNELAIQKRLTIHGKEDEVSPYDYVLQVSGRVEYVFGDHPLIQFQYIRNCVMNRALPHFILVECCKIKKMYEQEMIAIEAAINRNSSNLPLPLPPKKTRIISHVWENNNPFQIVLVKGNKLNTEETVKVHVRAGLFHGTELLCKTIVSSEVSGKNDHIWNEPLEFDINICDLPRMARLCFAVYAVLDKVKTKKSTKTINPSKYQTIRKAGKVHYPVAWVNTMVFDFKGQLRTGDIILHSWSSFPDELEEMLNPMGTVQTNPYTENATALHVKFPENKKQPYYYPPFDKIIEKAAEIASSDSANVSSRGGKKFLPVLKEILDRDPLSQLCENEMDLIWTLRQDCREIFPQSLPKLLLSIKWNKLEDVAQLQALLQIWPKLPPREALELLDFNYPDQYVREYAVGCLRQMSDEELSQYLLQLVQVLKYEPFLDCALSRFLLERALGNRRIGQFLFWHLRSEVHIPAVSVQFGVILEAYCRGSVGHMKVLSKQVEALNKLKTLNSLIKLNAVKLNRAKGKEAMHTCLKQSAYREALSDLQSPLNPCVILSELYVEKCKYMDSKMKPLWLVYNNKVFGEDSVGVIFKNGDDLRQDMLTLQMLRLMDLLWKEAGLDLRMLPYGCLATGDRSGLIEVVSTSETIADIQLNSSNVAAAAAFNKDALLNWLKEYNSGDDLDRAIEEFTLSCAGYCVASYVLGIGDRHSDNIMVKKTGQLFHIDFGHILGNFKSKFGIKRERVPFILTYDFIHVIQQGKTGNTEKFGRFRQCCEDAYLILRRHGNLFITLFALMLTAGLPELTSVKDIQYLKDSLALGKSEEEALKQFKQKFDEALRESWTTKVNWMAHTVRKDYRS
Chain of Bromodomain-containing protein 3 (Q15059 whole entry): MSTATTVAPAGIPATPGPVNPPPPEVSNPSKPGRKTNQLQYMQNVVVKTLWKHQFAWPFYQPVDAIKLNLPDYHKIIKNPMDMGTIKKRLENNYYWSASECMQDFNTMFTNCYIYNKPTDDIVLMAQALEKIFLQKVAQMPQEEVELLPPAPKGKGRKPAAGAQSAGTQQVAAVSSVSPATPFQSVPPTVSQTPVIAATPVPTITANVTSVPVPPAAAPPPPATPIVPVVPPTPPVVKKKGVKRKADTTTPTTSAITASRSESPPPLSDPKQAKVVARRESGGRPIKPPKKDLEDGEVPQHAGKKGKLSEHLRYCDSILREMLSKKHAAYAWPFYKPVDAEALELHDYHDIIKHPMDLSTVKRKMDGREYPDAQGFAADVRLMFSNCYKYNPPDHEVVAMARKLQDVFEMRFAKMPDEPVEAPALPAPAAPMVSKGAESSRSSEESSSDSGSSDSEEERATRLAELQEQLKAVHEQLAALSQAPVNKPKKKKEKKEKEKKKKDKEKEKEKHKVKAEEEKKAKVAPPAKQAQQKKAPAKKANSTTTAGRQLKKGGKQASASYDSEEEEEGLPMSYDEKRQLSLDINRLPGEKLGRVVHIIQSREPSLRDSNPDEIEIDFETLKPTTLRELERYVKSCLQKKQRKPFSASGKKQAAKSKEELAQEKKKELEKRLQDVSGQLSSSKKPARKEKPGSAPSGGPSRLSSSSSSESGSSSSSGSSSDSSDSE
Chain of Phosphatidylinositol 4,5-bisphosphate 3-kinase catalytic subunit gamma isoform (P48736 whole entry, canonical isoform): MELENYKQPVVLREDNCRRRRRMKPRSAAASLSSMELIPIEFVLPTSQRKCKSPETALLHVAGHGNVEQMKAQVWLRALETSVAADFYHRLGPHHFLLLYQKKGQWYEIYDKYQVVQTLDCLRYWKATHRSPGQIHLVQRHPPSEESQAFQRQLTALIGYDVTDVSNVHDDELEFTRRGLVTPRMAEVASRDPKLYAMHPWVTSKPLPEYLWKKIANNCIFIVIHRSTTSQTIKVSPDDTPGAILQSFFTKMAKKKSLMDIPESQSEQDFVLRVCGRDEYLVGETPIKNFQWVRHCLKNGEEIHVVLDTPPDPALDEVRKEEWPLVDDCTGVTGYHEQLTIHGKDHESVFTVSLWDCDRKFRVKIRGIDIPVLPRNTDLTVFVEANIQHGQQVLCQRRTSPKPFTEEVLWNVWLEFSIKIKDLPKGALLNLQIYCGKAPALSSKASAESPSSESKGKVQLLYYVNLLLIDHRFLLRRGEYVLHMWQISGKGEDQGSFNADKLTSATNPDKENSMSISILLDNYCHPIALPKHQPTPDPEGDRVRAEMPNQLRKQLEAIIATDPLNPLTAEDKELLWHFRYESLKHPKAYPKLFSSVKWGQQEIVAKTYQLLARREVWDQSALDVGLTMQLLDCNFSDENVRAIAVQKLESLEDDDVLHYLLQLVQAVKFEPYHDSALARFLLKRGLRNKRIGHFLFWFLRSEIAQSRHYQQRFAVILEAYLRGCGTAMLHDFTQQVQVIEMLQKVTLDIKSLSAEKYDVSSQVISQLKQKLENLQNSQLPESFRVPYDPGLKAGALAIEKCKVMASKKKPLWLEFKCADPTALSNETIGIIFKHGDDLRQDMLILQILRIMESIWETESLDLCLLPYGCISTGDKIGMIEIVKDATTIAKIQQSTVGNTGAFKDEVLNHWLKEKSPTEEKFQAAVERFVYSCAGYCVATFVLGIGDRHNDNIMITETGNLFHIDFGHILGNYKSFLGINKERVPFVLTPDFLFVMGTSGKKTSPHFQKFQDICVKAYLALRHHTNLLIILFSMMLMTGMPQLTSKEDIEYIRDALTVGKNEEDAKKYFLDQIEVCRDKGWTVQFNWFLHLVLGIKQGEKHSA

inhibition [1]: 43.5%
inhibition [2]: 12.7%
SMILES: Cn1cc(-c2nc(N3CCOCC3)c3sc(CN4CCN(CC5CC5)CC4)cc3n2)c2cn[nH]c2c1=O

IC50 (SU-DHL-6 [3]): 23 nM
IC50 [5]: 0.73 nM
IC50 (SU-DHL-6 [6]): 10 nM
SMILES: CCS(=O)(=O)Nc1ccc(Oc2ccc(F)cc2F)c(-c2cn(C)c(=O)c3[nH]ccc23)c1 [MIVEBRESIB]
IC50 (SUD4 [4]): 41 nM
IC50 (SUD4 [7]): 14 nM

inhibition [1]: 16%
inhibition [2]: 28.2%
SMILES: Cn1cc(-c2nc(N3CCOCC3)c3sc(CN4CCN(C(=O)CN)CC4)cc3n2)c2cc[nH]c2c1=O

inhibition [1]: 28.8%
inhibition [2]: 35.2%
SMILES: Cn1cc(-c2nc(N3CCOCC3)c3sc(CN4CCN(C(=O)CO)CC4)cc3n2)c2cc[nH]c2c1=O

IC50 (SU-DHL-6 [3]): 270 nM
inhibition [1]: 45.7%
IC50 [8]: 96 nM
inhibition [2]: 32.7%
IC50 [5]: 15 nM
SMILES: Cn1cc(-c2nc(N3CCOCC3)c3sc(CN4CCN(S(C)(=O)=O)CC4)cc3n2)c2cc[nH]c2c1=O
IC50 (SUD4 [4]): 665 nM

IC50 [10]: 1230 nM
IC50 [12]: 383 nM
IC50 (SU-DHL-6 [3]): 518 nM
IC50 [14]: 599 nM
IC50 [8]: 158 nM
IC50 [16]: 303 nM
IC50 [19]: 235 nM
IC50 [20]: 129 nM
IC50 [5]: 312 nM
IC50 [22]: 251 nM
SMILES: O=c1cc(N2CCOCC2)oc2c(-c3ccc4c(c3)OCCO4)csc12
viability at 1 µM (SUD4 [9]): 61.7%
Activity [11]: Non-toxic
Activity [13]: Non-toxic
Activity (WI-38): Toxic
Activity (SUD4 [15]): 1.05%
viability at 1 µM (SU-DHL-6 [17]): 60.2%
Activity [18]: Non-toxic
IC50 (SUD4 [4]): 1880 nM
Activity (SUD4 [21]): 26.8%
Activity (SU-DHL-6 [23]): 5.53%
Activity (SUD4 [24]): 10.4%
Activity (SU-DHL-6 [25]): Active; More Effective Than Sf2523
inhibition in vivo at 20 mg/kg (SU-DHL-6 [26]): 62.3%
Activity (SU-DHL-6 [27]): 33.6%
Activity (HUVEC): Toxic
Activity [28]: Non-toxic
Activity [29]: Non-toxic
Activity [30]: Non-toxic
Activity (SU-DHL-6 [31]): 0.61%

inhibition [1]: 24.1%
inhibition [2]: 4.6%
SMILES: Cn1ccc(-c2nc(N3CCOCC3)c3sc(CN4CCN(CC5CC5)CC4)cc3n2)cc1=O

inhibition [1]: 19.5%
inhibition [2]: 59.9%
SMILES: C[C@H](N)C(=O)N1CCN(Cc2cc3nc(-c4cn(C)c(=O)c5[nH]ccc45)nc(N4CCOCC4)c3s2)CC1

inhibition [1]: 0.9%
inhibition [2]: 35%
SMILES: Cn1cc(-c2nc(N3CCCCC3)c3sc(CN4CCN(CC5CC5)CC4)cc3n2)c2cc[nH]c2c1=O

inhibition [1]: 27.4%
inhibition [2]: 38.2%
SMILES: C[C@@H](O)C(=O)N1CCN(Cc2cc3nc(-c4cn(C)c(=O)c5[nH]ccc45)nc(N4CCOCC4)c3s2)CC1

inhibition [1]: 25.7%
inhibition [2]: 32.6%
SMILES: Cn1cc(-c2nc(N3CCOCC3)c3sc(CN4CCN(CC5CC5)CC4)cc3n2)ccc1=O
